The values below are quoted from earlier work in patent publication US9615750B2, “Methods and compositions for carrier agents and clearing agents used in optoacoustic imaging systems” (SENO MEDICAL INSTRUMENTS, INC., priority 2012, dated 2017).

For this data set the following is noted: for Solubility: in words, solvents as named.

Consider `OCc1ccccc1` [Benzyl alcohol], for which the Solubility in water result is “soluble 4 g/100 ml”. As to `CN1CCCN(C)C1=O` [Cyclic Urea], the Solubility result is given as “Soluble in water”. Turning to `NC(N)=O` [Urea], the Solubility in water was above 100 g/100 ml). In the case of Chondroitin Sulfate, the Solubility entry was “Water Soluble”. Heparin [reference compound]: the Solubility result is “Water Soluble”. Regarding Keratan Sulfate, the Solubility entry is on record as “Water Soluble”. Consider “Polyoxyethylene (20) sorbitan [TWEEN ® 20]”, for which the Solubility result is listed as “Insoluble in Mineral Oil”.
